Experimental data: patent publication US11518996B2, “Methods and compositions for treating cancer using peptide nucleic acid-based agents” (MEMORIAL SLOAN-KETTERING CANCER CENTER, priority 2013, dated 2022)
Entries after “also recorded” stand apart in the source; their conditions may differ.

Assays:
[1] = system: total BRAF wild type protein; assay: Western blot of total BRAF protein in OCM1A cells; format: cell-based; conditions: 750 nM, over 72 hours
Protocol: (§1) Cells were treated for 24, 48 and 72-hour treatments with 750 nM PNA and lysed in radioimmunoprecipitation assay (RIPA) buffer supplemented with protease inhibitor cocktail tablets (Roche Diagnostics) and 1 mmol/L Na3VO4. Equal amounts of protein were loaded on 4% to 12% PAGE gels (Invitrogen). Polyvinylidene difluoride (PVDF) membranes were blocked with 5% nonfat dried milk and probed with p-MEK, MEK, p-ERK 1/2 (T202/Y204), ERK 1/2, cleaved PARP, α-tubulin (Cell Signaling Technology), BRAF (Santa Cruz Biotechnology), LC3 (Novus Biologicals) and BRAF V600E (Spring Bioscience).
(§2) FIGS. 3A-3C depict BRAF mutant and BRAF wild type protein expression in melanoma cells (C918 and OCM1A) treated with 750 nM of the PNA I-292-3 L2LP NHAc for 24, 48 or 72 hours. FIG. 3A depicts the measurement of mutant and total BRAF protein expression as measured by Western blotting in C918 and OCM1A cells. Tubulin expression was also measured as a loading control. […]
as §2, with “4A-4C” for “3A-3C”, “I-292-9 L2” for “I-292-3 L2LP”, “4A” for “3A”

[2] = system: OCM1A cells; assay: Cell viability assay (CCK8), BRAF V600E mutant uveal melanoma cells; conditions: increasing doses, 72 hours
Protocol: (§3) PNA compounds targeting the BRAF V600E gene mutation were tested against melanoma cell lines that are either BRAF wild type (C918) or BRAF V600E mutant (OCM1A and SK-MEL 7). C918 and OCM1A are uveal melanoma cell lines while SK-MEL 7 is a cutaneous melanoma cell line. C918 was kindly provided by Robert Folberg (University of Illinois, Chicago, Ill.). OCM1A was from Dr. William Harbour (Washington University, St. Louis, Mo.). SK-MEL 7 was from Alan Houghton (Memorial Sloan-Kettering Cancer Center, New York, N.Y.). Cells were cultured in RPMI medium supplemented with 10% FBS, 100 units/mL penicillin, and […] streptomycin and maintained at 37° C. in 5% CO2.
(§4) PNA compounds targeting the BRAF V600E gene mutation were tested against melanoma cell lines that are either BRAF wild-type (C918) or BRAF V600E mutant (OCM1A and SK-MEL 7). C918 and OCM1A are uveal melanoma cell lines while SK-MEL 7 is a cutaneous melanoma cell line. […] Cells were treated with increasing doses of several PNA derivatives for 72 hours after which the cell viability was measured and calculated relative to the untreated cells. Cells were plated in 96-well plates and treated in triplicates with the indicated concentrations of PNA derivative. Viability was assessed after 72 hours of treatment using the Cell Counting Kit 8 (CCK8) from Dojindo Molecular Technologies according to the manufacturer's instructions.

[3] = system: total BRAF wild type protein; assay: Western blot of total BRAF protein in C918 cells; format: cell-based; conditions: 750 nM, over 72 hours
Protocol: as §1, §2
as §2, with “4A-4C” for “3A-3C”, “I-292-9 L2” for “I-292-3 L2LP”, “4A” for “3A”

[4] = system: SK-MEL 7 cells; assay: Cell viability assay (CCK8), BRAF V600E mutant cutaneous melanoma cells; conditions: increasing doses, 72 hours
Protocol: as §3, §4

[5] = system: BRAF V600E mutant protein; assay: Western blot of BRAF V600E mutant protein in OCM1A cells; format: cell-based; conditions: 750 nM, over 72 hours
Protocol: as §1, §2
as §2, with “4A-4C” for “3A-3C”, “I-292-9 L2” for “I-292-3 L2LP”, “4A” for “3A”

[6] = system: BRAF; assay: BRAF expression by Western blot in SK MEL 7 cells; format: cell-based
Protocol: as §4, §1

[7] = system: BRAF V600E mRNA; assay: qRT-PCR of BRAF V600E mRNA in SK-Mel 7 cells; format: cell-based; conditions: 750 nM, 48 hours, RT-PCR, normalized with GAPDH
Protocol: (§5) C918 and OCM1A cells were treated with 750 nM PNA (I-292-3 L2LP) for 48 hours. Mutant BRAF mRNA expression in cells was quantified using RT-PCT. Specifically, cells were treated and then lysed using TRIzol Reagent® (Invitrogen). Reverse transcription of 1 μg of RNA was done using the SuperScript III First-Strand Synthesis System (Invitrogen). Quantitative real-time PCR (qRT-PCR) assays were performed using the 7300 Real Time PCR System (Applied Biosystems). TaqMan gene expression assays, which include gene-specific probe primer sets (Applied Biosystems), were used to detect the indicated genes and glyceraldehyde-3-phosphate dehydrogenase (GAPDH)/hypoxanthine phosphoribosyltransferase (HPRT) mRNA. The relative expression of each gene was calculated by the ΔΔCT method. Cells wild-type for BRAF (C918) as well as mutant cell lines (OCM1A and SK-Mel 7) were treated for 48 hours with 750 nM I-292-3 L2LP NHAc. According to FIG. 5A, BRAF^V600E mRNA expression was quantified using RT-PCR. Relative Quantity (RQ) values were normalized with GAPDH loading control and set relative to the mutant BRAF mRNA expression in untreated OCM1A cells (ND). […] According to FIG. 5B, Both BRAF^V600E and total BRAF mRNA expression in SK-Mel 7 cells were quantified using RT-PCR. RQ values were normalized with GAPDH and set relative to untreated cells. […]

[8] = system: BRAF V600E mRNA; assay: qRT-PCR of BRAF V600E mRNA in OCM1A cells; format: cell-based; conditions: 750 nM, 48 hours, RT-PCR, normalized with GAPDH
Protocol: as §5

[9] = system: OCM1A; assay: Xenograft mouse trial, tumor size; format: in vivo, Athymic mice
Protocol: Athymic mice (3 per group) were inoculated with OCM1A. After 15 days, the size of the developing tumor was sufficient for further measurement and monitoring. The treatment group was given 50 mg/kg dosage of I-292-3 L2LP-NHAc on days 15, 17, 20 and 22. […] Moreover, one week following the last dose, the average tumor size of the treated group began to shrink by 25% over 4 days.

[10] = system: total BRAF mRNA; assay: qRT-PCR of total BRAF mRNA in SK-Mel 7 cells; format: cell-based; conditions: 750 nM, 48 hours, RT-PCR, normalized with GAPDH
Protocol: as §5

[11] = system: BRAF; assay: BRAF expression by Western blot in OCM1A cells; format: cell-based
Protocol: as §4, §1

[12] = Toxicity in xenograft mice by weight loss and activity; format: in vivo, Athymic mice; conditions: OCM1A xenograft mice, 50 mg/kg doses, 28 day study
Protocol: Toxicity of the tested PNA derivative was evaluated by measuring weight loss of test animals.

Row | Compound | total BRAF wild type protein in OCM1A cells [1] | suppression of cell viability in OCM1A cells [2] | total BRAF wild type protein in C918 cells [3] | suppression of cell viability in SK-MEL 7 cells [4] | BRAF V600E mutant protein expression in OCM1A cells [5] | decrease in BRAF expression, SK MEL 7 cells [6] [%] | BRAF V600E mRNA expression in SK-Mel 7 cells [7] | BRAF V600E mRNA expression in OCM1A cells [8] | tumor volume regression ([9]; OCM1A xenograft mice, 50 mg/kg IP doses (FIG. 6A legend)) [%] | average tumor size as percentage of the untreated control group ([9]; OCM1A xenograft, 50 mg/kg on days 15, 17, 20 and 22, day 28) [%] | shrinkage of average tumor size of the treated group ([9]; OCM1A xenograft, 50 mg/kg, over 4 days, one week following the last dose) [%] | total BRAF mRNA expression in SK-Mel 7 cells [10] | decrease in BRAF expression, OCM1A cells [11] [%] | animal weight and activity (toxicity, words) [12]
1 | AcNH-Lys(palmitoyl)-dLys-dLys-CCTCAAGAGTAATAATAT-dLys-dArg3-dGln-dArg2-dLys2-dArg-Gly-dTyr-dLys-dLys-Lys(palmitoyl)-CONH2 [I-292-9 L2 NHAc] | slight decrease; also recorded: slight reduction | significant suppression of cell viability | no significant reduction | significant suppression of cell viability | decreased expression | – | – | – | – | – | – | – | – | –
2 | CCCCCCCCCCCCCCCC(=O)NCCCC[C@H](NC(=O)[C@@H](CCCCN)NC(=O)[C@@H](CCCCN)NC(=O)[C@H](NC(=O)[C@@H](CCCCN)NC(=O)[C@@H](CCCNC(=N)N)NC(=O)[C@@H](CCCCN)NC(=O)[C@@H](CCCCN)NC(=O)[C@@H](CCCCN)NC(=O)[C@H]1CCCN1C(=O)[C@@H](CCCCN)NC(=O)CN(CCNC(=O)CN(CCNC(=O)CN(CCNC(=O)CN(CCNC(=O)CN(CCNC(=O)CN(CCNC(=O)CN(CCNC(=O)CN(CCNC(=O)CN(CCNC(=O)CN(CCNC(=O)CN(CCNC(=O)CN(CCNC(=O)CN(CCNC(=O)CN(CCNC(=O)CN(CCNC(=O)CN(CCNC(=O)CN(CCNC(=O)CN(CCNC(=O)[C@@H](CCCCN)NC(=O)[C@@H](CCCCN)NC(=O)[C@H](CCCCNC(=O)CCCCCCCCCCCCCCC)NC(C)=O)C(=O)Cn1ccc(N)nc1=O)C(=O)Cn1ccc(N)nc1=O)C(=O)Cn1cc(C)c(=O)[nH]c1=O)C(=O)Cn1ccc(N)nc1=O)C(=O)Cn1cnc2c(N)ncnc21)C(=O)Cn1cnc2c(N)ncnc21)C(=O)Cn1cnc2c(=O)[nH]c(N)nc21)C(=O)Cn1cnc2c(N)ncnc21)C(=O)Cn1cnc2c(=O)[nH]c(N)nc21)C(=O)Cn1cc(C)c(=O)[nH]c1=O)C(=O)Cn1cnc2c(N)ncnc21)C(=O)Cn1cnc2c(N)ncnc21)C(=O)Cn1cc(C)c(=O)[nH]c1=O)C(=O)Cn1cnc2c(N)ncnc21)C(=O)Cn1cnc2c(N)ncnc21)C(=O)Cn1cc(C)c(=O)[nH]c1=O)C(=O)Cn1cnc2c(N)ncnc21)C(=O)Cn1cc(C)c(=O)[nH]c1=O)C(C)C)C(N)=O [I-292-3 L2LP NHAc, AcNH-Lys(palmitoyl)-dLys-dLys-C CT CAAGAGTAATAATAT-dLys-dPro-dLys-dLys-dLysdArg-dLys-dVal-dLys-dLys-Lys(palmitoyl)-CONH2] | no significant reduction | significant suppression of cell viability | no significant reduction | significant suppression of cell viability | decreased expression | 62.4 | decreased significantly | significantly decreased | 50 | 35 | 25 | no observed decrease | 40.3 | no weight loss or changes in daily activity
